Experimental data from ChEMBL document CHEMBL1149882, “Sesterterpenoids from the sponge Sarcotragus sp” (J Nat Prod, 2008).
≈ marks a conversion by molar mass, not a printed value.

Legend:
Bacillus subtilis = test: Antimicrobial activity against Bacillus subtilis ATCC 6633; type: functional
Escherichia coli = test: Antimicrobial activity against Escherichia coli ATCC 11775; type: functional
Salmonella typhimurium = test: Antimicrobial activity against Salmonella Typhimurium ATCC 14028; type: functional, Salmonella enterica subsp. enterica serovar Typhimurium; details: Salmonella enterica
Staphylococcus aureus [1] = test: Antimicrobial activity against methicillin-resistant Staphylococcus aureus ATCC 700787; type: functional
Micrococcus luteus = test: Antimicrobial activity against Micrococcus luteus IFC12708; type: functional
Staphylococcus aureus [2] = test: Antimicrobial activity against methicillin-resistant Staphylococcus aureus ATCC 43300; type: functional
Staphylococcus aureus [3] = test: Antimicrobial activity against methicillin-resistant Staphylococcus aureus ATCC 700788; type: functional
Staphylococcus aureus [4] = test: Antimicrobial activity against Staphylococcus aureus ATCC 65389; type: functional
K562 = test: Cytotoxicity against human K562 cells by MTT assay; type: functional; details: read-out: LC50 (the source's name)
Isocitrate lyase = Isocitrate lyase (Candida albicans, UniProt Q9P8Q7); test: Inhibition of Candida albicans isocitrate lyase
Proteus vulgaris = test: Antimicrobial activity against Proteus vulgaris ATCC 3851; type: functional

Isocitrate lyase, sequence (Q9P8Q7 whole entry): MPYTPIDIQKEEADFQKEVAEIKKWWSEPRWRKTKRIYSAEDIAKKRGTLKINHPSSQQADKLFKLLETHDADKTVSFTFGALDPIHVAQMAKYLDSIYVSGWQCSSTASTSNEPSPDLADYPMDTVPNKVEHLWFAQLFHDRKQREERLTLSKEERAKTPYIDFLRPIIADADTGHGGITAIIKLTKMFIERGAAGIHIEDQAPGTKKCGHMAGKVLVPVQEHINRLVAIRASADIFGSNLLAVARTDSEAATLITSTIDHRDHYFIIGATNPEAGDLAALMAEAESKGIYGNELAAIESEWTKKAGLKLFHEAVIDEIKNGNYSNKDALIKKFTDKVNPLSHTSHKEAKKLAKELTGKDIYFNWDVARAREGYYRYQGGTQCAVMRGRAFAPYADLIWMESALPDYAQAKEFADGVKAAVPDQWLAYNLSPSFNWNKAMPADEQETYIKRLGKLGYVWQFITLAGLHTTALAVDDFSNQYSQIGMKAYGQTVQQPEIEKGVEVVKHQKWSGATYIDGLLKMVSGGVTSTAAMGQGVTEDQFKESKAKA

| Structure (SMILES) | MIC (Bacillus subtilis) [µg/mL] | MIC (Escherichia coli) [µg/mL] | MIC (Salmonella typhimurium) [µg/mL] | MIC (Staphylococcus aureus [1]) [µg/mL] | MIC (Micrococcus luteus) [µg/mL] | MIC (Staphylococcus aureus [2]) [µg/mL] | MIC (Staphylococcus aureus [3]) [µg/mL] | MIC (Staphylococcus aureus [4]) [µg/mL] | CC50 (K562) [µg/mL] | IC50 (Isocitrate lyase) [µM] | MIC (Proteus vulgaris) [µg/mL] |
| --- | --- | --- | --- | --- | --- | --- | --- | --- | --- | --- | --- |
| COC(=O)C(C)(O)[C@](O)(C[C@H](C)CC/C=C(/C)CC/C=C(/C)CCCC1=CCN(CC(=O)O)C1=O)C(=O)OC (stereo not given in full) | > 100 | > 100 | > 100 | > 100 | > 100 | > 100 | > 100 | > 100 | > 100 | 358 | > 100 |
| C/C(=C/CC[C@@H](C)CC(=O)O)CC/C=C(/C)CCCC1=CC(=O)OC1=O | > 100 | > 100 | > 100 | > 100 | 100 (≈ 276 µM) | > 100 | > 100 | > 100 | > 100 | 54.9 | > 100 |
| CC1=C(O)/C(=C/[C@H](C)CCC/C(C)=C/CC/C(C)=C/CCc2ccoc2)OC1=O | 6.25 (≈ 15.7 µM) | > 100 | 25 (≈ 62.7 µM) | 50 (≈ 125 µM) | 12.5 (≈ 31.4 µM) | 50 (≈ 125 µM) | 50 (≈ 125 µM) | 12.5 (≈ 31.4 µM) | 39 (≈ 97.9 µM) | 81.5 | 12.5 (≈ 31.4 µM) |
| COC1C=C(CC/C=C(\C)CC/C=C(\C)CCC[C@@H](C)/C=C2\OC(=O)C(C)=C2O)C(OC)O1 (stereo not given in full) | 50 (≈ 109 µM) | > 100 | > 100 | 50 (≈ 109 µM) | 50 (≈ 109 µM) | 50 (≈ 109 µM) | 100 (≈ 217 µM) | 100 (≈ 217 µM) | 80 (≈ 174 µM) | 91.4 | 100 (≈ 217 µM) |
| CC1=C(O)/C(=C/[C@H](C)CC/C=C(/C)CC/C=C(/C)CCCC2=CC(=O)OC2O)OC1=O (stereo not given in full) | > 100 | > 100 | > 100 | 100 (≈ 232 µM) | 50 (≈ 116 µM) | 100 (≈ 232 µM) | > 100 | > 100 | > 100 | 91.5 | > 100 |
| C/C(=C/CC[C@@H](C)CC(=O)O)CC/C=C(/C)CCCc1ccoc1 | 25 (≈ 75.2 µM) | > 100 | 12.5 (≈ 37.6 µM) | 25 (≈ 75.2 µM) | 6.25 (≈ 18.8 µM) | 12.5 (≈ 37.6 µM) | 25 (≈ 75.2 µM) | 25 (≈ 75.2 µM) | > 100 | 241 | 25 (≈ 75.2 µM) |
| COC1C=C(CCC/C(C)=C\CC/C(C)=C\CC[C@@H](C)/C=C2\OC(=O)C(C)=C2O)C(OC)O1 (stereo not given in full) | 50 (≈ 109 µM) | > 100 | > 100 | 100 (≈ 217 µM) | 50 (≈ 109 µM) | 100 (≈ 217 µM) | 100 (≈ 217 µM) | 100 (≈ 217 µM) | 83 (≈ 180 µM) | 95.1 | > 100 |
| COC(=O)C(C)(O)[C@@](O)(C[C@H](C)CC/C=C(/C)CC/C=C(/C)CCCc1ccoc1)C(=O)OC (stereo not given in full) | > 100 | > 100 | > 100 | > 100 | 50 (≈ 104 µM) | > 100 | > 100 | > 100 | 46 (≈ 96.1 µM) | 253 | > 100 |
| COC(=O)C(C)(O)[C@](O)(C[C@H](C)CCC/C(C)=C/CC/C(C)=C/CCc1ccoc1)C(=O)OC (stereo not given in full) | > 100 | > 100 | > 100 | > 100 | 100 (≈ 209 µM) | > 100 | > 100 | > 100 | 20 (≈ 41.8 µM) | > 418 | > 100 |
| Cc1onc(-c2ccccc2)c1C(=O)N[C@@H]1C(=O)N2[C@@H]1SC(C)(C)[C@@H]2C(=O)O [OXACILLIN] |  |  |  | 50 (≈ 125 µM) |  | 25 (≈ 62.3 µM) | 25 (≈ 62.3 µM) |  |  |  |  |
| CC1=C(O)/C(=C/[C@H](C)CCC/C(C)=C/CC/C(C)=C/CCC2=CC(O)OC2=O)OC1=O (stereo not given in full) | > 100 | > 100 | > 100 | > 100 | 50 (≈ 116 µM) | > 100 | > 100 | > 100 | > 100 | 29 | > 100 |
| CC1=C(O)/C(=C/[C@H](C)CCC/C(C)=C/CCC(C)(O)CCCc2ccoc2)OC1=O (stereo not given in full) | > 100 | > 100 | > 100 | > 100 | 100 (≈ 240 µM) | 100 (≈ 240 µM) | > 100 | > 100 | > 100 | 55.7 | > 100 |
| COC(=O)C(C)(O)[C@](O)(C[C@H](C)CC/C=C(/C)CC/C=C(/C)CCCc1ccoc1)C(=O)OC (stereo not given in full) | > 100 | > 100 | > 100 | > 100 | > 100 | > 100 | > 100 | > 100 | 34 (≈ 71 µM) | 188 | > 100 |
| CC1=C(O)/C(=C/[C@H](C)CC/C=C(/C)CC/C=C(/C)CCCC2=CC(O)OC2=O)OC1=O (stereo not given in full) | > 100 | > 100 | > 100 | > 100 | 100 (≈ 232 µM) | > 100 | > 100 | > 100 | > 100 |  | > 100 |
| CC1(C)S[C@@H]2[C@H](NC(=O)[C@H](N)c3ccccc3)C(=O)N2[C@H]1C(=O)O [AMPICILLIN] | 3.12 (≈ 8.94 µM) | 1.56 (≈ 4.47 µM) | 1.56 (≈ 4.47 µM) |  | 12.5 (≈ 35.8 µM) |  |  | 1.56 (≈ 4.47 µM) |  |  | 3.12 (≈ 8.94 µM) |
| COC(=O)C(C)(O)[C@](O)(C[C@H](C)CCC/C(C)=C/CC/C(C)=C/CCC1=CCN(CC(=O)O)C1=O)C(=O)OC (stereo not given in full) | > 100 | > 100 | > 100 | > 100 | > 100 | > 100 | > 100 | > 100 | > 100 | > 363 | > 100 |
| C=C(CC(=O)O)C(=O)O [ITACONATE] |  |  |  |  |  |  |  |  |  | 37.7 |  |
| CC1=C(O)/C(=C/[C@H](C)CC/C=C(/C)CC/C=C(/C)CCCc2ccoc2)OC1=O | 3.12 (≈ 7.84 µM) | > 100 | 6.25 (≈ 15.7 µM) | 6.25 (≈ 15.7 µM) | 3.12 (≈ 7.84 µM) | 6.25 (≈ 15.7 µM) | 12.5 (≈ 31.4 µM) | 3.12 (≈ 7.84 µM) | 62 (≈ 156 µM) | 81.5 | 6.25 (≈ 15.7 µM) |
| C/C(=C\CCc1ccoc1)CC/C=C(\C)CCC[C@@H](C)CC(=O)O | > 100 | > 100 | 50 (≈ 150 µM) | 100 (≈ 301 µM) | 12.5 (≈ 37.6 µM) | 25 (≈ 75.2 µM) | > 100 | 100 (≈ 301 µM) | > 100 | > 602 | 50 (≈ 150 µM) |
